Columns and labels:
[1] = LNP particle size, polydispersity index and charge by Zeta Sizer; format: physicochemical; conditions: LNP lipid:DOPE:Cholesterol:DMG-PEG 35:20:43.5:1.5, firefly luciferase saRNA; for Polydispersity Index (PI) / Z-average (nm): N/P approx. 40/1
Protocol: Cationic lipids, DOPE, Cholesterol and DMG-PEG lipid were solubilized in ethanol or DMSO at a molar ratio of 35:20:43.5:1.5 and a concentration of 100:25:20:25 μg/μL for C12-200 or 170:25:20:25 μg/μL for the comparator lipids. Lipid nanoparticles (LNP) were prepared by targeting an N/P ratio of approximately 40/1 with saRNA. Briefly, the firefly luciferase saRNA of approximately 9659 nucleotides was diluted to 0.5 mg/mL in 5 mM citrate buffer, pH 4.5. Microfluidic mixer (Ignite from Precision Nanosystems, California, USA) was used to mix the lipid solution with the saRNA aqueous solution at a ratio of about 1:3 (vol/vol) with total flow rates above 10 ml/min. The ethanol was then removed, and the external buffer replaced with 10 mM TRIS-HCL, PH 7.4, by dialysis. Finally, the lipid nanoparticles were filtered through a 0.2 μm pore sterile filter. Lipid nanoparticle particle size was 50-150 nm diameter and polydispersity index (PI) of 0.1-0.4 as determined by Zeta Sizer (Malvern Panalytical, UK). The charge of the formulation was also measured by Zeta Sizer and ranged between 20 to −20 mV.

[2] = system: expression of the luciferase saRNA; assay: In vivo bioluminescent imaging after intramuscular injection of LNP-formulated luciferase saRNA; conditions: 1 μg LNP-formulated luciferase saRNA intramuscularly, female SWISS mice
[3] = saRNA loading / encapsulation efficiency, Quant-IT RiboGreen assay; format: physicochemical; conditions: LNP lipid:DOPE:Cholesterol:DMG-PEG 35:20:43.5:1.5, firefly luciferase saRNA
Protocol: The saRNA loading in LNP formulations was quantified using a Quant-IT RiboGreen assay (Thermo Fisher Scientific, Waltham, Massachusetts, USA) as previously described. 14 samples were diluted tenfold in 1x Tris HCL-EDTA (TE) buffer (10 mM Tris-HCL, 1 mM EDTA, pH 7.5) with or without 2% (v/v) Triton X-100 (Sigma-Aldrich, Saint Louis, Missouri, USA). Standard solutions were also prepared in 1xTE with or without 2% (v/v) Triton X-100 to account for any variation in fluorescence. The assay was performed according to the manufacturer's protocol. Samples were loaded on a black 96-well plate and analysed for fluorescence on a microplate reader (Tecan Infinite® 200 PRO) at an excitation of 485 nm and emission at 528 nm. Encapsulation efficiency was calculated between 80-100%.

[4] = Weight evolution of the animals following administration of LNPs; format: in vivo; conditions: female SWISS mice
[5] = Day 1, 1 μg LNP-formulated saRNA intramuscularly
[6] = Day 3, 1 μg LNP-formulated saRNA intramuscularly
[7] = Day 5, 1 μg LNP-formulated saRNA intramuscularly
[8] = Day 7, 1 μg LNP-formulated saRNA intramuscularly
[9] = Day 10, 1 μg LNP-formulated saRNA intramuscularly
[10] = Day 15, 1 μg LNP-formulated saRNA intramuscularly
[11] = Day 20, 1 μg LNP-formulated saRNA intramuscularly

SMILES	Zetapotential (mV) [1]	Polydispersity Index (PI) [1]	Z-average (nm) [1]	Bioluminescence expression of LNPs ([2]; Day 1)	Bioluminescence expression of LNPs ([2]; Day 3)	Bioluminescence expression of LNPs ([2]; Day 5)	Bioluminescence expression of LNPs ([2]; Day 7)	Bioluminescence expression of LNPs ([2]; Day 10)	Bioluminescence expression of LNPs ([2]; Day 15)	Bioluminescence expression of LNPs ([2]; Day 20)	Encapsulation (%) [3]	Weight ([4]; Day 0)	Weight [4, 5]	Weight [4, 6]	Weight [4, 7]	Weight [4, 8]	Weight [4, 9]	Weight [4, 10]	Weight [4, 11]
CCCCCCC(CCCC)C(=O)OCCCCCCN(CCCCCCOC(=O)C(CCCC)CCCCCC)CCN1CCN(CCN(CCCCCCOC(=O)C(CCCC)CCCCCC)CCCCCCOC(=O)C(CCCC)CCCCCC)CC1 (stereo not drawn) [Compound 9-34, ((piperazine-1,4-diylbis(ethane-2,1-diyl))bis(azanetriyl))tetrakis(hexane-6,1-diyl) tetrakis(2-butyloctanoate)]	−7.92 mV	0.16	71.78 nm	4.79E+07	7.26E+08	7.42E+08	9.12E+08	4.70E+07	1.43E+05	3.37E+04	94.93%	27.77 g	26.14 g	28.33 g	28.51 g	28.49 g	28.97 g	30.24 g	31.51 g
CCCCCCCCC(CCCCCC)C(=O)OCCCCN(CCCCOC(=O)C(CCCCCC)CCCCCCCC)CCN1CCN(CCN(CCCCOC(=O)C(CCCCCC)CCCCCCCC)CCCCOC(=O)C(CCCCCC)CCCCCCCC)CC1 (stereo not drawn) [Compound 9-36, ((piperazine-1,4-diylbis(ethane-2,1-diyl))bis(azanetriyl))tetrakis(butane-4,1-diyl) tetrakis(2-hexyldecanoate)]	−10.52 mV	0.20	105.70 nm	4.28E+06	1.92E+08	8.44E+08	6.10E+08	5.56E+06	2.57E+05	1.16E+05	96.25%	29.09 g	29.49 g	31.49 g	30.09 g	30.36 g	30.56 g	31.33 g	32.30 g
CCCCCCCCC(CCCCCC)C(=O)OCCCCCCN(CCCCCCOC(=O)C(CCCCCC)CCCCCCCC)CCN1CCN(CCN(CCCCCCOC(=O)C(CCCCCC)CCCCCCCC)CCCCCCOC(=O)C(CCCCCC)CCCCCCCC)CC1 (stereo not drawn) [Compound 9-37, ((piperazine-1,4-diylbis(ethane-2,1-diyl))bis(azanetriyl)) tetrakis(hexane-6,1-diyl) tetrakis(2-hexyldecanoate)]	−9.93 mV	0.27	89.43 nm	1.07E+07	2.06E+08	4.17E+08	3.54E+08	2.11E+06	7.50E+04	2.65E+04	92.32%	28.21 g	26.73 g	28.81 g	28.84 g	28.84 g	29.36 g	30.63 g	31.61 g

— patent publication US20250236599A1, “LIPID NANOPARTICLES FOR OLIGONUCLEOTIDE DELIVERY” (ZIPHIUS NV, priority 2021, published 2025)
